Data from article PMC2738925 (Transplantation, 2009).

Molecular target: T1, mouse CXCR3 (Mus musculus, UniProt O88410)
T1 sequence (O88410 1-367): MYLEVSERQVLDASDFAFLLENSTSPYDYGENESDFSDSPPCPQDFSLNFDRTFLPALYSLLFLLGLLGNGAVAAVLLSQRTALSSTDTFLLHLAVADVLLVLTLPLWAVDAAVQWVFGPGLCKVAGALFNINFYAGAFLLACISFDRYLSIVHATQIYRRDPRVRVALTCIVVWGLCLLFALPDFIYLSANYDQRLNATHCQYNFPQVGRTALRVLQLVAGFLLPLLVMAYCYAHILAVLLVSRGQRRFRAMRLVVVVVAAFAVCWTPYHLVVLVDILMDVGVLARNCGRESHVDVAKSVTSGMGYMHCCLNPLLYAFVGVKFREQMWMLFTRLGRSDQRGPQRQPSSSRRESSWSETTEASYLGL
Experiment: […]-CXCL10 radioligand displacement on HEK […] cells transfected with mouse CXCR3
Assay type: cell-based

Substance: AMG1237845
- IC50: 53 ± 7 nM
